EC50 data for 18 molecules are collected here from patent US9346809B2 (LEO PHARMA A/S, priority 2009, dated 2016).

Type in all cases: biochemical
Assay [1] has as its target T1, JAK3 (catalytic domain, His-tag) (Homo sapiens, UniProt P52333).
T1 construct: All four purified enzymes contain only the catalytic domain; His (N); purchased Carna Biosciences, Inc; host or cells: baculovirus expression system
In words: JAK kinase assay (HTRF, phosphorylation of TK substrate-biotin), JAK3. To be noted: ATP at Km (2 μM), read-out: JAK3 kinase inhibitory activity (EC50 indicator). In short, it runs like this: (§1)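 Baculovirus-expressed catalytic domains phosphorylated 1 μM TK substrate-biotin in 50 mM Hepes pH 7.0 with ATP at Km (JAK1 7 μM, JAK2 4 μM, JAK3 2 μM, TYK2 13 μM) for 20-30 min at RT. EDTA/KF stop, streptavidin-XL665 plus cryptate antibody overnight; HTRF signal gave EC50.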
(Time-resolved FRET reads energy transfer from a long-lived donor to a nearby acceptor.)

Assay [2] addresses T2, JAK2 (catalytic domain, His-tag) (Homo sapiens, UniProt O60674).
T2 construct: All four purified enzymes contain only the catalytic domain; His (N); purchased Carna Biosciences, Inc; host or cells: baculovirus expression system
In words: JAK kinase assay (HTRF, phosphorylation of TK substrate-biotin), JAK2. To be noted: ATP at Km (4 μM), read-out: JAK2 kinase inhibitory activity (EC50 indicator). In short, it runs like this:
as §1

The target of assay [3] is T3, JAK1 (aa 850-1154, catalytic domain, GST-tag) (Homo sapiens, UniProt P23458).
T3 construct: JAK1 (aa 850-1154) and TYK2 (aa 871-1187) are expressed with an N-terminally fused GST-tag; GST (N); purchased Carna Biosciences, Inc; host or cells: baculovirus expression system
T3 sequence (P23458 850-1154): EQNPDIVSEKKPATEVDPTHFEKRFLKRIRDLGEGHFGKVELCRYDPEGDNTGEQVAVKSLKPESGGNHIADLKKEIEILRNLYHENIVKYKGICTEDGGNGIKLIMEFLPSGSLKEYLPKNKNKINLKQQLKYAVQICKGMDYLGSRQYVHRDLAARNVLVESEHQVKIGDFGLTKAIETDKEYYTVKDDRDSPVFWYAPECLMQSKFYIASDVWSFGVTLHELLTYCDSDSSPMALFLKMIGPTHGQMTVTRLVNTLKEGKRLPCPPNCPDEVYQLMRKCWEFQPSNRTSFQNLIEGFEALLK
Put plainly: JAK kinase assay (HTRF, phosphorylation of TK substrate-biotin), JAK1. To be noted: ATP at Km (7 μM), read-out: JAK1 kinase inhibitory activity (EC50 indicator). In short, it runs like this:
as §1

In assay [4] the target is T4, TYK2 (aa 871-1187, catalytic domain, GST-tag) (Homo sapiens, UniProt P29597).
T4 construct: JAK1 (aa 850-1154) and TYK2 (aa 871-1187) are expressed with an N-terminally fused GST-tag; GST (N); purchased Carna Biosciences, Inc; host or cells: baculovirus expression system
T4 sequence (P29597 871-1187): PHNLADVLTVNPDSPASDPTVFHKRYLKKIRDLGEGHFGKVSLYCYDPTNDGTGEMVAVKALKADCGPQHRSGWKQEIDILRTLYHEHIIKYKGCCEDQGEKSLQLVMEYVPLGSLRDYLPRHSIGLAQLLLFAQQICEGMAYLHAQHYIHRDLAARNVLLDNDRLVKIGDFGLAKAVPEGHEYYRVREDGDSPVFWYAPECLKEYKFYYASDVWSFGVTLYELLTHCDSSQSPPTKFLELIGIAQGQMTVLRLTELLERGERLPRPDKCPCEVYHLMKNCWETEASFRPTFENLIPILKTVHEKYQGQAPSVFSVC
Put plainly: JAK kinase assay (HTRF, phosphorylation of TK substrate-biotin), TYK2. To be noted: ATP at Km (13 μM), read-out: TYK2 kinase inhibitory activity (EC50 indicator). Put shortly:
as §1

The term EC50 denotes the concentration at which the effect is half-maximal.

Like-named read-outs stand apart in the source and are kept apart here.

T1 sequence (P52333 822-1111 limits assumed): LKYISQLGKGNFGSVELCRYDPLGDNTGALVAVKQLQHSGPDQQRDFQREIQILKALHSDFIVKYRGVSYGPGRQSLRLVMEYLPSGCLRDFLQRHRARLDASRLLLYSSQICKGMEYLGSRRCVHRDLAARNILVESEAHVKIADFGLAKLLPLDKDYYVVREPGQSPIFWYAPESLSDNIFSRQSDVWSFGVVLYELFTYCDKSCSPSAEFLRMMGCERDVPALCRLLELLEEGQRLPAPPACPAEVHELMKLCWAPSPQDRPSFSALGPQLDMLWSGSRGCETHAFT
T2 sequence (O60674 849-1124 limits assumed): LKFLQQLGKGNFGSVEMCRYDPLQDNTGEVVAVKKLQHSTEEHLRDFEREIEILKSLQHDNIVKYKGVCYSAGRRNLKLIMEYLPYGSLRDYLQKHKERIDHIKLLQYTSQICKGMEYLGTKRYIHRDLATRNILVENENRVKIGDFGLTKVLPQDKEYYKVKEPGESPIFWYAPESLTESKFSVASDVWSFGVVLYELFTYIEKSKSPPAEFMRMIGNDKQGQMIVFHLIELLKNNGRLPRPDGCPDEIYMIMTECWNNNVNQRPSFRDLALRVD

Consider `NS(=O)(=O)c1ccc(SCC(=O)N2CCN(c3ncnc4[nH]ccc34)CC23CC3)cc1` [Example 404, 4-{2-Oxo-2-[7-(7H-pyrrolo[2,3-d]pyrimidin-4-yl)-4,7-diaza-spiro[2.5]oct-4-yl]-ethylsulfanyl}-benzenesulfonamide], for which the EC50 in assay [1] (HTRF assay), in assay [2] (HTRF assay), in assay [3] (HTRF assay) and in assay [4] (HTRF assay) was < 100 nM each time.

With `N#CCCCC(=O)N1[C@@H]2CC[C@@H]1CN(c1ncnc3[nH]ccc13)C2` [Example 352, 5-Oxo-5-[3-(7H-pyrrolo[2,3-d]pyrimidin-4-yl)-3,8-diaza-bicyclo[3.2.1]oct-8-yl]-pentanenitrile], the EC50 was 100 to 500 nM in assay [1] (HTRF assay), < 100 nM in assay [2] (HTRF assay), < 100 nM in assay [3] (HTRF assay) and > 500 nM in assay [4] (HTRF assay).

Consider `Cc1ccc2sc(C(=O)N3CCN(c4ccnc5[nH]ccc45)CC34CC4)cc2c1` [Example 234, (5-Methyl-benzo[b]thiophen-2-yl)-[7-(1H-pyrrolo[2,3-b]pyridin-4-yl)-4,7-diaza-spiro[2.5]oct-4-yl]-methanone], for which the EC50 in assay [1] (HTRF assay) is > 500 nM; in assay [2] (HTRF assay), 100 to 500 nM; in assay [3] (HTRF assay), 100 to 500 nM; in assay [4] (HTRF assay), > 500 nM.

On to `Cc1c[nH]c2ncnc(N3CCN(C(=O)c4ccc(C#N)cc4)C4(CC4)C3)c12` [Example 118, 4-[7-(5-Methyl-7H-pyrrolo[2,3-d]pyrimidin-4-yl)-4,7-diaza-spiro[2.5]octane-4-carbonyl]-benzonitrile], for which the EC50 in assay [1], in assay [2], in assay [3] and in assay [4] was > 500 nM throughout.

For `O=C(c1cnccn1)N1CCN(c2ccnc3[nH]ccc23)CC12CC2` [Example 225, Pyrazin-2-yl-[7-(1H-pyrrolo[2,3-b]pyridin-4-yl)-4,7-diaza-spiro[2.5]oct-4-yl]-methanone], the EC50 is > 500 nM in assay [1] (HTRF assay), < 100 nM in assay [2] (HTRF assay), 100 to 500 nM in assay [3] (HTRF assay) and > 500 nM in assay [4] (HTRF assay).

As for `N#Cc1ccc(CC(=O)N2CCN(c3ncnc4[nH]cc(Cl)c34)CC23CC3)cc1` [Example 324, 4-{2-[7-(5-Chloro-7H-pyrrolo[2,3-d]pyrimidin-4-yl)-4,7-diaza-spiro[2.5]oct-4-yl]-2-oxo-ethyl}-benzonitrile], the EC50 in assay [1] (HTRF assay) is < 100 nM; in assay [2] (HTRF assay), < 100 nM; in assay [3] (HTRF assay) it was < 100 nM; in assay [4] (HTRF assay), > 500 nM.

In the case of `CCS(=O)(=O)Nc1ccc(C(=O)N2CCN(c3ncnc4[nH]ccc34)CC23CC3)cc1` [Example 210, Ethanesulfonic acid {4-[7-(7H-pyrrolo[2,3-d]pyrimidin-4-yl)-4,7-diaza-spiro[2.5]octane-4-carbonyl]-phenyl}-amide], the EC50 in assay [1] (HTRF assay), in assay [2] (HTRF assay), in assay [3] (HTRF assay) and in assay [4] (HTRF assay) was < 100 nM each time.

On to `O=C(c1ncco1)N1[C@@H]2CC[C@@H]1CN(c1ncnc3[nH]ccc13)C2` [Example 177, Oxazol-2-yl-[3-(7H-pyrrolo[2,3-d]pyrimidin-4-yl)-3,8-diaza-bicyclo[3.2.1]oct-8-yl]-methanone], for which the EC50 in assay [1] was 100 to 500 nM; in assay [2], 100 to 500 nM; in assay [3], 100 to 500 nM; in assay [4] it was > 500 nM.

As for `N#Cc1ccccc1CC(=O)N1[C@@H]2CC[C@@H]1CN(c1ncnc3[nH]ccc13)C2` [Example 250, 2-{2-Oxo-2-[3-(7H-pyrrolo[2,3-d]pyrimidin-4-yl)-3,8-diaza-bicyclo[3.2.1]oct-8-yl]-ethyl}-benzonitrile], the EC50 is 100 to 500 nM in assay [1] (HTRF assay), 100 to 500 nM in assay [2] (HTRF assay), 100 to 500 nM in assay [3] (HTRF assay) and > 500 nM in assay [4] (HTRF assay).

Consider `CS(=O)(=O)c1ccc(C(=O)N2CCN(c3ncnc4[nH]ccc34)CC23CC3)cc1F` [Example 370, (3-Fluoro-4-methanesulfonyl-phenyl)-[7-(7H-pyrrolo[2,3-d]pyrimidin-4-yl)-4,7-diaza-spiro[2.5]oct-4-yl]-methanone], for which the EC50 is < 100 nM in assay [1] (HTRF assay), < 100 nM in assay [2] (HTRF assay), < 100 nM in assay [3] (HTRF assay) and 100 to 500 nM in assay [4] (HTRF assay).

Take `CS(=O)(=O)Nc1ccc(C(=O)N2CCN(c3ncnc4[nH]ccc34)CC23CC3)cc1` [Example 430, N-{4-[7-(7H-Pyrrolo[2,3-d]pyrimidin-4-yl)-4,7-diaza-spiro[2.5]octane-4-carbonyl]-phenyl}-methanesulfonamide]: the EC50 in assay [1] (HTRF assay), in assay [2] (HTRF assay), in assay [3] (HTRF assay) and in assay [4] (HTRF assay) was < 100 nM throughout.

Take `O=C(c1cnccn1)N1[C@@H]2CC[C@H]1CN(c1ncnc3[nH]ccc13)C2` [Example 421, Pyrazin-2-yl-[3-(7H-pyrrolo[2,3-d]pyrimidin-4-yl)-3,8-diaza-bicyclo[3.2.1]oct-8-yl]-methanone]: the EC50 in assay [1] (HTRF assay) is 100 to 500 nM; in assay [2] (HTRF assay), < 100 nM; in assay [3] (HTRF assay), < 100 nM; in assay [4] (HTRF assay), > 500 nM.

Turning to `N#Cc1ccc2[nH]c(C(=O)N3C4CCC3CN(c3ncnc5[nH]ccc35)C4)cc2c1` [Example 129, 2-[3-(7H-Pyrrolo[2,3-d]pyrimidin-4-yl)-3,8-diaza-bicyclo[3.2.1]octane-8-carbonyl]-1H-indole-5-carbonitrile], the EC50 in assay [1] is < 100 nM; in assay [2] it was < 100 nM; in assay [3], < 100 nM; in assay [4], > 500 nM.

On to `NS(=O)(=O)c1cccc(C(=O)N2CCN(c3ncnc4[nH]ccc34)CC23CC3)c1` [Example 371, 3-[7-(7H-Pyrrolo[2,3-d]pyrimidin-4-yl)-4,7-diaza-spiro[2.5]octane-4-carbonyl]-benzenesulfonamide], for which the EC50 in assay [1] (HTRF assay), in assay [2] (HTRF assay), in assay [3] (HTRF assay) and in assay [4] (HTRF assay) was < 100 nM in each case.

As for `Cc1nccnc1C(=O)N1CCN(c2ncnc3[nH]ccc23)CC12CC2` [Example 417, (3-Methyl-pyrazin-2-yl)-[7-(7H-pyrrolo[2,3-d]pyrimidin-4-yl)-4,7-diaza-spiro[2.5]oct-4-yl]-methanone], the EC50 in assay [1] (HTRF assay), in assay [2] (HTRF assay), in assay [3] (HTRF assay) and in assay [4] (HTRF assay) was < 100 nM each time.

For the molecule `CC(C)CNC(=S)N1[C@@H]2CC[C@H]1CN(c1ncnc3[nH]ccc13)C2` [Example 10, 3-(7H-Pyrrolo[2,3-d]pyrimidin-4-yl)-3,8-diaza-bicyclo[3.2.1]octane-8-carbothioic acid isobutyl-amide], the EC50 in assay [1] is > 500 nM; in assay [2], 100 to 500 nM; in assay [3], 100 to 500 nM; in assay [4], > 500 nM.

Consider `O=C(c1cccc(O)n1)N1CCN(c2ncnc3[nH]ccc23)CC12CC2` [Example 166, (6-Hydroxy-pyridin-2-yl)-[7-(7H-pyrrolo[2,3-d]pyrimidin-4-yl)-4,7-diaza-spiro[2.5]oct-4-yl]-methanone], for which the EC50 in assay [1] was 100 to 500 nM; in assay [2], < 100 nM; in assay [3], < 100 nM; in assay [4], > 500 nM.

`CS(=O)(=O)c1ccc2[nH]c(C(=O)N3CCN(c4ncnc5[nH]ccc45)CC34CC4)cc2c1` [Example 365, (5-Methanesulfonyl-1H-indol-2-yl)-[7-(7H-pyrrolo[2,3-d]pyrimidin-4-yl)-4,7-diaza-spiro[2.5]oct-4-yl]-methanone]: the EC50 in assay [1] (HTRF assay), in assay [2] (HTRF assay), in assay [3] (HTRF assay) and in assay [4] (HTRF assay) was < 100 nM each time.
